What was measured:
[1] = target: T1, Muscarinic acetylcholine receptor M1 (Homo sapiens, UniProt P11229); assay: Antagonist activity at human recombinant muscarinic M1 receptor expressed in CHO cells assessed as inhibition of acetylcholine-induced intracellular Ca2+ mobilization by FLIPR assay; type: functional, cell-based
T1 sequence (P11229 whole entry): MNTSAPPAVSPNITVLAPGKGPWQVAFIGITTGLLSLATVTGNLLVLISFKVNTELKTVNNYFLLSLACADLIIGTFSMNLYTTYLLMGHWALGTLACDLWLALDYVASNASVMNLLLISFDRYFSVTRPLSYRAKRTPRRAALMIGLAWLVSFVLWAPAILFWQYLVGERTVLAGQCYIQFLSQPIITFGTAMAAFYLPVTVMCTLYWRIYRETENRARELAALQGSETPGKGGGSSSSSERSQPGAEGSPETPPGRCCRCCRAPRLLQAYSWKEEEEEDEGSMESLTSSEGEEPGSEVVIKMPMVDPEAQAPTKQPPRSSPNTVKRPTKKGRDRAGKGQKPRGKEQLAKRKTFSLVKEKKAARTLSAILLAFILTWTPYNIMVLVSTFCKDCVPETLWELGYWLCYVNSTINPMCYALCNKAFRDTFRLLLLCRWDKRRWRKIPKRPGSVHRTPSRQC

[2] = target: T2, Muscarinic acetylcholine receptor M2 (Homo sapiens, UniProt P08172); assay: Antagonist activity at human recombinant muscarinic M2 receptor expressed in CHO cells coexpressing chimeric G protein Gqi5 assessed as inhibition of acetylcholine-induced intracellular Ca2+ mobilization by FLIPR assay; type: functional, cell-based
T2 sequence (P08172 whole entry): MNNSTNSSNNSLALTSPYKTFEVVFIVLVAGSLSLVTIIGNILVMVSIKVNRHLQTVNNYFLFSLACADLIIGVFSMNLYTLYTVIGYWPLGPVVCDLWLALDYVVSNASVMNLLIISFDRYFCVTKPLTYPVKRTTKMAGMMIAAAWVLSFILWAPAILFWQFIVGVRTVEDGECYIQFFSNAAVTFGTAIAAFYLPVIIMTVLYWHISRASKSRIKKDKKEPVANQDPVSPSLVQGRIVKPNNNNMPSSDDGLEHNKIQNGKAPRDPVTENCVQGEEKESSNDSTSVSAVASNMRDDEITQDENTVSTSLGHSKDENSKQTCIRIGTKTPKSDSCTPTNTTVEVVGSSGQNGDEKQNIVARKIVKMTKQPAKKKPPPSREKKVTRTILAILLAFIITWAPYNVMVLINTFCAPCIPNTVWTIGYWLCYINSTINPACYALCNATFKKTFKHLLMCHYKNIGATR

[3] = target: Muscarinic acetylcholine receptor M1 and M3 (Homo sapiens) (UniProt P20309+P11229); assay: Selectivity for human recombinant muscarinic M3 receptor over human recombinant muscarinic M1 receptor
Muscarinic acetylcholine receptor M1 and M3 (Homo sapiens), sequence (P20309 whole entry, looked up, one chain of several): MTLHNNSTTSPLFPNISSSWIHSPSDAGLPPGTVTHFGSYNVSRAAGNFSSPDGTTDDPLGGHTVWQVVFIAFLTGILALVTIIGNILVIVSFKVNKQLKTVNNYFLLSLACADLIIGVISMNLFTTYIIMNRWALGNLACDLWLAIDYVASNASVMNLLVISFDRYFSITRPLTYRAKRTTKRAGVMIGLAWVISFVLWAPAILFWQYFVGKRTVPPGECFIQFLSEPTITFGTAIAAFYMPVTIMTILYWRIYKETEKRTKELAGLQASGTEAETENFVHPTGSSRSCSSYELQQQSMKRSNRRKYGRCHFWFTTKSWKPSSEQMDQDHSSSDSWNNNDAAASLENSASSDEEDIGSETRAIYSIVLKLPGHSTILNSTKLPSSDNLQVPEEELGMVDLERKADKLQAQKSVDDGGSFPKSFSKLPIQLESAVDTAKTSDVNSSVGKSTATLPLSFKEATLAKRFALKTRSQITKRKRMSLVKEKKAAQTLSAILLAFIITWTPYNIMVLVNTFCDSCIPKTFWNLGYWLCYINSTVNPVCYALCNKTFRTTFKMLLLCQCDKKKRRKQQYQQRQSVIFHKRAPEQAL

[4] = target: Muscarinic acetylcholine receptor M3 (Homo sapiens, UniProt P20309); assay: Antagonist activity at human recombinant muscarinic M3 receptor expressed in CHO cells assessed as inhibition of acetylcholine-induced intracellular Ca2+ mobilization by FLIPR assay; type: functional, cell-based
Muscarinic acetylcholine receptor M3, sequence (P20309 whole entry): as the sequence (P20309 whole entry, looked up, one chain of several) above

[5] = target: Muscarinic acetylcholine receptors; M2 & M3 (Homo sapiens) (UniProt P20309+P08172); assay: Selectivity for human recombinant muscarinic M3 receptor over human recombinant muscarinic M2 receptor
Muscarinic acetylcholine receptors; M2 & M3 (Homo sapiens), sequence (P20309 whole entry, looked up, one chain of several): as above

[6] = Permeability across artificial membrane; type: ADME; conditions: PAMPA; read-out: permeability

Row | IC50 [1] [nM] | IC50 [2] [nM] | Selectivity ratio [3] | IC50 [4] [nM] | Selectivity ratio [5] | Papp [6] [×10⁻⁶ cm/s] | Kb ([1]; read-out: pA2 (converted)) [nM] | Kb ([2]; read-out: pA2 (converted)) [nM] | Kb ([4]; read-out: pA2 (converted)) [nM] | SMILES
1 | 1000 | 200 | 100 | 31.6 | 10 |  |  |  |  | CCOC(=O)c1ccc(NC(=O)N[C@@H](Cc2ccc(O)cc2)C(=O)NC2CCN(Cc3ccc4c(c3)OCO4)C2)cc1 (stereo partly specified)
2 | 2000 | 200 | 100 | 15.8 | 10 |  |  |  |  | CCOC(=O)c1ccc(NC(=O)N[C@@H](Cc2ccc(O)cc2)C(=O)NC2CCN(Cc3ccccc3)C2)cc1 (stereo partly specified)
3 | > 3160 | 631 | 100 | 15.8 | 10 |  |  |  |  | CCOC(=O)c1ccc(NC(=O)N[C@@H](Cc2ccc(O)cc2)C(=O)NC2CCN(Cc3cccc(C(F)(F)F)c3)C2)cc1 (stereo partly specified)
4 |  |  |  |  |  | < 0.3 |  |  |  | CC(C)OC(=O)c1ccc(NC(=O)N[C@@H](Cc2ccc(O)cc2)C(=O)N[C@H]2CCC[N+](C)(Cc3cccc(O)c3)C2)cc1.[I-] (stereo partly specified)
5 | 501 | 251 | 100 | 20 | 10 |  |  |  |  | CCOC(=O)c1ccc(NC(=O)N[C@@H](Cc2ccc(O)cc2)C(=O)NC2CCN(Cc3ccc(OC)cc3)C2)cc1 (stereo partly specified)
6 |  |  | 100 |  | > 10 |  | 15.8 | 1.58 | 0.1 | C=CC[N+]1(Cc2cccc(O)c2)CCC[C@H](NC(=O)[C@H](Cc2ccc(O)cc2)NC(=O)Nc2ccc(C(=O)OC(C)C)cc2)C1 (stereo partly specified)
7 | 251 | 100 | 100 | 6.31 | 10 |  |  |  |  | CCOC(=O)c1ccc(NC(=O)N[C@@H](Cc2ccc(O)cc2)C(=O)NC2CCN(Cc3cccc(C#N)c3)C2)cc1 (stereo partly specified)
8 | 1000 | 158 | 100 | 50.1 | 10 |  |  |  |  | CCOC(=O)c1ccc(NC(=O)N[C@@H](Cc2ccc(O)cc2)C(=O)NC2CCN(Cc3ccccc3OC)C2)cc1 (stereo partly specified)
9 | 794 | 158 | 100 | 20 | 10 |  |  |  |  | CCOC(=O)c1ccc(NC(=O)N[C@@H](Cc2ccc(O)cc2)C(=O)NC2CCN(Cc3cccc(O)c3)C2)cc1 (stereo partly specified)
